Reference: patent US20240246954A1, “COMPOSITIONS AND METHODS FOR INHIBITING KRAS” (TheRas, Inc., priority 2021, published 2024)
Where two headings read alike, the source gives them in different places.

Experiments:
[1] = target: T1, Avi-KRAS G12D (1-169) GppNHp/RAF1 RBD-3×FLAG (52-151) (Homo sapiens, UniProt P01116, G12D); test: HTRF Raf1-KRAS G12D-GppNHp disruption assay; type: biochemical; details: 1 h incubation
T1 construct: Avi-KRAS G12D (1-169) GppNHp
Summary of the method: (§1)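 Compounds titrated from 100 μM in a 10-point series, incubated with protein mix 1 h at room temperature, then HTRF reagents a further 1 h. Time-resolved fluorescence read (excitation 320 nm, emission 615 nm); activity expressed as percentage of DMSO control.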

[2] = target: T2, Avi-KRAS G12D/Q25A (1-169) GppNHp/3×FLAG-PI3KCA (157-299) (Homo sapiens, UniProt P01116, G12D/Q25A); test: HTRF PI3KCA-KRAS G12D/Q25A-GppNHp disruption assay; type: biochemical; details: 1 h incubation
T2 construct: Avi-KRAS G12D/Q25A (1-169) GppNHp
Summary of the method: as §1

[3] = tested on: pERK in GP2d cells (KRAS G12D); test: Cell-based pERK HTRF assay; details: 60 min incubation
Method: Biological Example 3. Cell-Based pERK HTRF Assay
pERK assay (Perkin Elmer) was used to determine the effectiveness of compounds in disrupting KRAS G12D protein/effector signaling in cells.
On Day 1, cells (GP2d) were seeded into 96-well plates at 3×10^4 cells/well in 80 μl complete growth media (DMEM, 10% FBS).
On Day 2, cells were treated with compounds at 0.25% DMSO. The source plate was created with compounds diluted in media at 5-fold the final assay concentration. The compounds were run in a 9-point concentration curve starting at 1 μM, with a half-log dilution between concentrations. 20 μL was transferred onto the cell plates (final volume in wells was 100 μL). Plates were harvested after 60 min incubation by aspirating media and adding kit-supplied 1× supplemented lysis buffer to all wells (50 μl per well). Plates were then placed on a plate shaker and incubated at 850 rpm for an additional 30 min.
Antibody mixture solution is prepared by diluting aliquoted d2 and Eu Cryptate antibodies 1:20 in kit supplied detection buffer, mix the diluted antibodies solutions (1:1 v:v). Four μL of this solution is then added to a 384-well detection plate (Perkin Elmer; 6008230).
Samples were homogenized by pipetting up and down and then transferred (16 μL of cell lysates) from the 96-well cell culture plate to two wells of the HTRF 384-well detection plate containing the antibody solution. Plates were centrifuged (524 g for 1 min) and allowed to incubate between 4 and 24 h at room temperature. Maximum signal is reached after 4 h incubation time and remains stable over a period of 24 hours. Therefore, readings can be made between 4 and 24 h of incubation. Plates were centrifuged again (524 g for 1 min), then analyzed on the EnVision plate reader using the following settings: Excitation 320 nm, Bandwidth 75 nm; Emission 615 nm, Bandwidth 85 nm; Gain 100%; Flashes 100; Lag 60 μs.

T2 sequence (P01116 1-169 isoform P01116-2 G12D/Q25A limits assumed): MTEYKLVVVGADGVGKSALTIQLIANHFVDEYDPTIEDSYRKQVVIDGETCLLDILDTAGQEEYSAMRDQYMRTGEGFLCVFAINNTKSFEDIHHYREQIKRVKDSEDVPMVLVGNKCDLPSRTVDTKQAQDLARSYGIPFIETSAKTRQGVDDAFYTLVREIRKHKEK
T1 sequence (P01116 1-169 isoform P01116-2 G12D limits assumed): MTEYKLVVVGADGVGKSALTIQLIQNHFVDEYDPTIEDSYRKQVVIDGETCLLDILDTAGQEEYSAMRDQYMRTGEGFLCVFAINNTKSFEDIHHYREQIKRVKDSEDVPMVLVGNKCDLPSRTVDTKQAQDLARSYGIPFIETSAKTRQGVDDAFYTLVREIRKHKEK

CN(c1nc(OCC23CCCN2CCC3)nc2c(F)c(-c3ccc(F)c4sc(N)nc34)c(C(F)(F)F)cc12)[C@@H]1CCN(C(=O)CN)C1 (atropisomer, axis not shown) [Compound 276]
IC50 [1]: 0.1 to 1 µM | IC50 [2]: 1 to 10 µM | IC50 ([3]; GP2d, 1 h): > 1 µM

CN(c1nc(OCC23CCCN2CCC3)nc2c(F)c(-c3ccc(F)c4sc(N)nc34)c(C(F)(F)F)cc12)[C@@H]1CCNC1 (single isomer, unassigned) [Compound 236]
IC50 [1]: 0.1 to 1 µM | IC50 [2]: 0.1 to 1 µM | IC50 ([3]; GP2d, 1 h): > 1 µM

N#Cc1c(N)sc2c(F)ccc(-c3c(C(F)(F)F)cc4c(N5CC6CCC(C5)N6)nc(OC[C@@]56CCCN5C[C@H](F)C6)nc4c3F)c12 (single isomer, unassigned) [Compound 366]
IC50 [1]: ≤ 0.1 µM | IC50 [2]: ≤ 0.1 µM | IC50 ([3]; GP2d, 1 h): ≤ 0.1 µM

N#Cc1c(N)sc2c(F)ccc(-c3c(C(F)(F)F)cc4c(N5CC6CCC(C5)N6)nc(OC[C@@]56CCCN5C[C@H](F)C6)nc4c3F)c12 (single isomer, unassigned) [Compound 367]
IC50 [1]: 1 to 10 µM | IC50 [2]: 1 to 10 µM | IC50 ([3]; read-out: pERK-Gp2D-1hr): 0.1 to 1 µM

CN(c1nc(OC[C@@]23CCCN2C[C@H](F)C3)nc2c(F)c(-c3ccc(F)c4sc(N)nc34)c(C(F)(F)F)cc12)C1CCNC1 (stereo in doubt) [Compound 322, 7-fluoro-4-(8-fluoro-2-(((2R,7aS)-2-fluorotetrahydro-1H-pyrrolizin-7a(5H)-yl)methoxy)-4-(methyl((R)-pyrrolidin-3-yl)amino)-6-(trifluoromethyl)quinazolin-7-yl)benzo[d]thiazol-2-amine]
IC50 [1]: 0.1 to 1 µM | IC50 [2]: 1 to 10 µM | IC50 ([3]; GP2d, 1 h): 0.1 to 1 µM

N#CCc1cc2c(NC3CNC3)nc(OCC34CCCN3CCC4)nc2c(F)c1-c1ccc(F)c2sc(N)nc12 [Compound 126]
IC50 [1]: 1 to 10 µM | IC50 [2]: 1 to 10 µM | IC50 ([3]; GP2d, 1 h): > 1 µM

NCC(=O)N1CCN(c2nc(OCC34CCCN3CCC4)nc3c(F)c(-c4ccc(F)c5sc(N)nc45)c(C(F)(F)F)cc23)CC1 [Compound 127]
IC50 [1]: 0.1 to 1 µM | IC50 [2]: 1 to 10 µM | IC50 ([3]; GP2d, 1 h): > 1 µM

CN1CCC[C@H]1COc1nc(NC2CNC2)c2cc(C(F)(F)F)c(-c3ccc(F)c4sc(N)nc34)c(F)c2n1 [Compound 129]
IC50 [1]: 0.1 to 1 µM | IC50 [2]: 1 to 10 µM | IC50 ([3]; GP2d, 1 h): > 1 µM

CN1CCC[C@H]1COc1nc(NC2CNC2)c2cc(-c3ccoc3)c(-c3ccc(F)c4sc(N)nc34)c(F)c2n1 [Compound 133]
IC50 [1]: 0.1 to 1 µM | IC50 [2]: 1 to 10 µM | IC50 ([3]; GP2d, 1 h): > 1 µM

CN1C[C@H](F)C[C@H]1COc1nc(N2C[C@H]3NCC[C@H]32)c2cc(C(F)(F)F)c(-c3ccc(F)c4sc(N)nc34)c(F)c2n1 [Compound 174]
IC50 [1]: 1 to 10 µM | IC50 ([3]; GP2d, 1 h): > 1 µM

Nc1nc2c(-c3c(Cl)cc4c(N5CC6CC(C5)N6)nc(OCC56CCCN5CCC6)nc4c3F)ccc(F)c2s1 [Compound 184, 4-(4-(3,6-diazabicyclo[3.1.1]heptan-3-yl)-6-chloro-8-fluoro-2-((tetrahydro-1H-pyrrolizin-7a(5H)-yl)methoxy)quinazolin-7-yl)-7-fluorobenzo[d]thiazol-2-amine]
IC50 [1]: 0.1 to 1 µM | IC50 [2]: 1 to 10 µM | IC50 ([3]; GP2d, 1 h): > 1 µM

Nc1nc2c(-c3c(C(F)(F)F)cc4c(N5CC6CC(C5)N6)nc(OCC56CCCN5CCC6)nc4c3F)ccc(F)c2s1 [Compound 185]
IC50 [1]: 0.1 to 1 µM | IC50 [2]: 0.1 to 1 µM | IC50 ([3]; GP2d, 1 h): 0.1 to 1 µM

NCC(=O)N1CC(Nc2nc(OCC34CCCN3CCC4)nc3c(F)c(-c4ccc(F)c5sc(N)nc45)c(C(F)(F)F)cc23)C1 [Compound 187]
IC50 [1]: 0.1 to 1 µM | IC50 [2]: 1 to 10 µM | IC50 ([3]; GP2d, 1 h): > 1 µM

NC(=O)N1CC(Nc2nc(OCC34CCCN3CCC4)nc3c(F)c(-c4ccc(F)c5sc(N)nc45)c(C(F)(F)F)cc23)C1 [Compound 188]
IC50 [1]: 0.1 to 1 µM | IC50 [2]: 1 to 10 µM | IC50 ([3]; GP2d, 1 h): > 1 µM

Fc1c(-c2ccc(F)c3scnc23)c(C(F)(F)F)cc2c(N3CC4CCC(C3)N4)nc(OCC34CCCN3CCC4)nc12 [Compound 375]
IC50 [1]: 10 to 30 µM | IC50 [2]: 10 to 30 µM
